Data published in patent publication US20230263789A1, “PHARMACEUTICAL COMPOSITION AND PREPARATION METHOD” (JIANGSU KANION PHARMACEUTICAL CO., LTD., priority 2020, published 2023).
Counter-ions that a name gives are not always drawn.

Assay: Preliminary test: dissolution of compound A with an acidic regulator
Format: physicochemical
Conditions: with an acidic regulator (citric acid or tartaric acid)
From the text: To improve the solubility of insoluble medicines, surfactants, acid-base regulators and the like are mostly used in the prior art. […] However, the granules obtained in the preliminary study process can solve the problem of solubility, but the stability is insufficient. Therefore, how to improve the solubility of the active substance provided by the present invention and ensure the stability has become a difficult point in a medicine technology.

Question: Which “Dissolution of compound A” value does the source give for CCn1nnc(-c2ccc(OCCC(C)(C)CCN3CCN(c4ccnc(N)c4)S3(=O)=O)nc2)n1 [compound A, 2-(2-aminopyridine-4-yl)-5-(5-((5-(2-ethyl-2H-tetrazole-5-yl)pyridine-2-yl)-oxy)-3,3-amyldimethyl)-1,2,5-thiadiazolidin 1,1-dioxide hydrochloride] here?
Answer: Its value is “complete dissolution”.
